Like-named read-outs stand apart in the source and are kept apart here.
What was measured:
MOLM14 cells = experiment: Proliferation assay, spheroid-like growth, MOLM14 (MLL-AF9 rearranged); format: cell-based, human; settings: 8 days, confluence as measure of spheroid size, read-out: spheroid assay_OneTime MOLM14 IC50
How it was run: (§1)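 Seed cells at linear-growth densities in low-attachment wells; add test compound at several concentrations, normalized to 0.3% DMSO; incubate 8 days at 37 °C; image spheroids and measure confluence; calculate absolute IC50 against DMSO and reference-compound controls.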

KO-52 cells = experiment: Proliferation assay, spheroid-like growth, KO-52 (MLL wildtype control cell line); format: cell-based, human; settings: KO-52 control cells, 8 days, confluence as measure of spheroid size, read-out: spheroid assay_OneTime KO-52 IC50
How it was run: as §1

[1] = target: T1, menin/MLL (terbium chelate-labeled menin, FITC-MBM1 peptide) (Homo sapiens, UniProt O00255, T541A); experiment: Menin/MLL homogenous time-resolved fluorescence (HTRF) assay; format: binding; settings: 30 min incubation
T1 construct: Menin (a.a 1-610-6xhis tag)
T1 sequence (O00255 with tags, fused parts or gaps T541A): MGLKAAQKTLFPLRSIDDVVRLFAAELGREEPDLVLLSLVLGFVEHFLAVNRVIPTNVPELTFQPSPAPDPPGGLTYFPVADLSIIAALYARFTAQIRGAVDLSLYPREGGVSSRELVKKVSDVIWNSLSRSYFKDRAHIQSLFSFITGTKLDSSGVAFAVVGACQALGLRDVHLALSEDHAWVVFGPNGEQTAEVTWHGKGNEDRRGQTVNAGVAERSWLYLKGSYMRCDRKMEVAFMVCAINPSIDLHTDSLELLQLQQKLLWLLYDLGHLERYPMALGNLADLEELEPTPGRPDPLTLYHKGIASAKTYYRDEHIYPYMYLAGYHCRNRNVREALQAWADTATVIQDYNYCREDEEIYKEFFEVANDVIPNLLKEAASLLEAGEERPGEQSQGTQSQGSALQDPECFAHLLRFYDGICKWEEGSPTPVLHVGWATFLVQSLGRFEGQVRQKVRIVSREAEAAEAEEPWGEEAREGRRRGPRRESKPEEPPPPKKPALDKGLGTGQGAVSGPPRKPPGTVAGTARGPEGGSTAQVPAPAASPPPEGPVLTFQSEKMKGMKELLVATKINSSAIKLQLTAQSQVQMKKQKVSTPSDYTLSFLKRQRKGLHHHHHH
How it was run: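 Percent inhibition, calculated from the 520/490 nm HTRF ratio against high and low controls, was fitted for IC50 with a 0.1 nM detection limit. Reactions held 200 pM Tb-menin and 75 nM FITC-MBM1 in pH 7.5 Tris buffer with 0.5% DMSO.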

Compound | IC50 (MOLM14 cells; Homo sapiens, MOLM-14, 192 h) [nM] | IC50 [1] [nM] | IC50 (MOLM14 cells) [nM] | IC50 (KO-52 cells; Homo sapiens, 192 h) [nM] | IC50 (KO-52 cells) [nM]
CC(=O)N[C@H]1C[C@@H]([C@@H](C(C)C)N2CC3(CCN(c4ncnnc4Oc4ccc(F)cc4-c4nccnc4C4CC4)C3)C2)C1 (single isomer, unassigned) [Compound 177] | 37 | 0.2 | – | 8870 | –
CC(C)[C@H]([C@H]1C[C@@H](N2CCC(C)(C(=O)N(C)C)C2)C1)N1CC2(CCN(c3ncnnc3Oc3ccc(F)cc3-c3cncnc3C3CC3)C2)C1 (stereo partly drawn) [Compound 161] | 4 | 0.1 | – | 3360 | –
C[C@H]([C@H]1C[C@@H](NC(=O)OC(C)(C)C)C1)N1CC2(CCN(c3ncnnc3Oc3ccc(F)cc3-c3cncnc3C3CC3)C2)C1 [Compound 512a] | – | 29.8 | 40 | – | 310
CC(=O)N[C@H]1C[C@@H]([C@@H](C(C)C)N2CC3(CCN(c4ncnnc4Oc4ccc(F)cc4-c4cnc(C#N)nc4C4CC4)C3)C2)C1 (single isomer, unassigned) [Compound 343] | 15 | 0.2 | – | 1140 | –
CC(C)C([C@H]1C[C@@H](N2C[C@H]3COC[C@H]3C2)C1)N1CC2(CCN(c3ncnnc3Oc3ccc(F)cc3-c3cnccc3C3CC3)C2)C1 (stereo partly drawn) [Compound 138] | 2 | 0.1 | – | 460 | –
CC(C)[C@H]([C@H]1C[C@@H](N2CCCCC2)C1)N1CC2(CCN(c3ncnnc3Oc3ccc(F)cc3-c3cncnc3C3CC3)C2)C1 (single isomer, unassigned) [Compound 48] | 4 | 0.3 | – | 1060 | –
CC(C)[C@H]([C@H]1C[C@@H](N2CC[C@H](S(C)(=O)=O)C2)C1)N1CC2(CCN(c3ncnnc3Oc3ccc(F)cc3-c3ncccc3C3CC3)C2)C1 (single isomer, unassigned) [Compound 286] | 120 | 0.3 | – | 12200 | –

More lines, main results first:

IC50 (MOLM14 cells; Homo sapiens, MOLM-14, 192 h) [nM] | IC50 [1] [nM] | IC50 (MOLM14 cells) [nM] | Compound | IC50 (KO-52 cells; Homo sapiens, 192 h) [nM] | IC50 (KO-52 cells) [nM]
54 | 0.1 | – | CC(C)[C@@H]([C@H]1CC[C@@H](NC(=O)C2CC2)C1)N1CC2(CCN(c3ncnnc3Oc3ccc(F)cc3-c3cncnc3C3CC3)C2)C1 (single isomer, unassigned) [Compound 344] | 1590 | –
– | 0.589 | > 940 | C[C@@H]([C@H]1C[C@@H](NC(=O)OC(C)(C)C)C1)N1CC2(CCN(c3ncnnc3Oc3ccc(F)cc3-c3cncnc3C3CC3)C2)C1 [Compound 512b] | – | 5810
120 | 0.2 | – | CC(C)[C@H](C1CCN(CC2COC2)CC1)N1CC2(CCN(c3ncnnc3Oc3ccc(F)cc3-c3cncnc3C3CC3)C2)C1 (single isomer, unassigned) [Compound 5] | 9310 | –
22 | 0.1 | – | CC(=O)N1CCC12CN([C@H]1C[C@@H]([C@@H](C(C)C)N3CC4(CCN(c5ncnnc5Oc5ccc(F)cc5-c5cncnc5C5CC5)C4)C3)C1)C2 (single isomer, unassigned) [Compound 172] | 10100 | –
82 | 0.3 | – | CC(=O)N[C@H]1C[C@@H]([C@H](N2CC3(CCN(c4ncnnc4Oc4ccc(F)cc4-c4cncnc4C4CC4)C3)C2)C23CC(C2)C3)C1 (single isomer, unassigned) [Compound 342] | 5840 | –
2 | 0.1 | – | CC(C)[C@@H]([C@H]1C[C@@H](N2CC[C@](C)(O)C2)C1)N1CC2(CCN(c3ncnnc3Oc3ccc(F)cc3-c3ncncc3C3CC3)C2)C1 (single isomer, unassigned) [Compound 99] | 2000 | –
3 | 0.1 | – | CO[C@@H]1CCN([C@H]2C[C@@H]([C@@H](C(C)C)N3CC4(CCN(c5ncnnc5Oc5ccc(F)cc5-c5cncnc5C5CC5)C4)C3)C2)C1 (single isomer, unassigned) [Compound 211] | > 15000 | –

— patent US20240417405A1, “Substituted Spiro Derivatives” (Janssen Pharmaceutica NV, priority 2021, published 2024)
